Like-named read-outs stand apart in the source and are kept apart here. Starred links: 1 amine or outer side, 2 acyl side, 3 side chain; linkers in the order of their positions; H or OH if unused. Non-standard residues stand in square brackets, D forms with d. Residues, ends and D or L forms follow the SMILES beside them. Groups on a side chain read outwards from the residue. *: point of attachment. C18 diacid = O=C(O)CCCCCCCCCCCCCCCCC(=O)*; γGlu = O=C(O)[C@H](CCC(=O)[*:2])N[*:1]; Palmitoyl = CCCCCCCCCCCCCCCC(=O)*; AEEA = NCCOCCOCC(=O)O; Aib = CC(C)(N)C(=O)O
Tests used:
human CRF2α receptor = target: T1, human CRF2α receptor (Homo sapiens, UniProt Q13324); test: cAMP agonism at human CRF2 α receptor in TeloHEAC cells (Example 7); assay type: cell-based; conditions: cAMP HTRF, TeloHEAC cells stably expressing human CRF2 α
T1 construct: expressed in transfected cells; host or cells: TeloHEAC
T1 sequence (Q13324 1-411): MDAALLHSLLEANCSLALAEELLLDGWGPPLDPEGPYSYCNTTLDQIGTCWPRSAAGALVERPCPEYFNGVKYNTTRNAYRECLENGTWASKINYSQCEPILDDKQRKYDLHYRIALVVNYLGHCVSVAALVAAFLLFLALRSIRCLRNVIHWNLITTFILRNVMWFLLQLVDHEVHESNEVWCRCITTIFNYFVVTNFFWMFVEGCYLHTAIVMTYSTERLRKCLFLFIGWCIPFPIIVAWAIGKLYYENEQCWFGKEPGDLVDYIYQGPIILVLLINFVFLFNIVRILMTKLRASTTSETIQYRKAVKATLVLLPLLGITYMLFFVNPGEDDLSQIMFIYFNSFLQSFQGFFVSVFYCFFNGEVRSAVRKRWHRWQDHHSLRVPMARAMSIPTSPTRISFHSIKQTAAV
Outline: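 Cryopreserved cells are thawed, washed and resuspended in IBMX-containing (2 mM) HEPES-buffered HBSS with or without 0.1% HSA. Compound incubation runs 30 min at room temperature with 2000 cells per well, then cAMP is measured by time-resolved FRET. Potency is expressed as EC50, efficacy relative to urocortin 2 at 1000 nM.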

CRF1R receptor = target: T2, CRF1R receptor (Homo sapiens, UniProt P34998); test: cAMP activity at anti-target CRF1R, CRF1R-overexpression CHO cell line (Example 9); assay type: cell-based; conditions: CRF1R-overexpression CHO cell line; for EC50: 0% HSA; for Emax: read-out: Emax (%)
T2 construct: host or cells: CHO-K1 clone 2
T2 sequence (P34998 24-415): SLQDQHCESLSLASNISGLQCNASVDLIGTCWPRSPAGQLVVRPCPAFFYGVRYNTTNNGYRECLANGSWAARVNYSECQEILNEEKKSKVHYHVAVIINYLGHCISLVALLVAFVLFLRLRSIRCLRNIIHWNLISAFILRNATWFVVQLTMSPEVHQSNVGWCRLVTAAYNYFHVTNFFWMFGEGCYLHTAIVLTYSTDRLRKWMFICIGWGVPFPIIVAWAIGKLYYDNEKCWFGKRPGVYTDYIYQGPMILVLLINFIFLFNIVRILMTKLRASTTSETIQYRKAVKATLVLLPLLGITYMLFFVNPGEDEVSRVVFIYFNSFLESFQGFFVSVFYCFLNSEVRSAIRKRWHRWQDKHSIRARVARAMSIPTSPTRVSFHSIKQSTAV
Outline: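 cAMP accumulation was read by HTRF after 30 min at room temperature of compound treatment. Cells were cryopreserved CHO cells overexpressing CRF1R, plated at 2000/well in IBMX (2 mM)-containing HBSS/HEPES buffer with 0 or 0.1% HSA. Activity was normalized to 1000 nM UCN2 as 100%.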

[1] = Solubility in buffer systems by UPLC-UV (Example 13); assay type: physicochemical; conditions: pH 4.5, Solubility in Buffer B [mg/ml]
Outline: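 The supernatant was diluted 1:10 and quantified by UPLC-UV peak area against a reference standard curve, correcting for sequence-based extinction coefficients.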

[2] = Physical stability, Thioflavin T fibrillation assay (Example 14); assay type: physicochemical; conditions: 3 mg/ml, 37° C. shaking
Procedure: The physical stability of the compounds was assessed using a Thioflavin T (ThT) assay.
The time course for fibril formation often follows the characteristic shape of a sigmoidal curve and can be separated into three regions: a lag phase, a fast growth phase, and a plateau phase. The typical fibril formation process starts with the lag phase in which the amount of partially folded peptide turned into fibrils is not significant enough to be detected. The lag-time corresponds to the time the critical mass of the nucleus is built. Afterwards, a drastic elongation phase follows and fibril concentration increases rapidly. Therefore, by measuring the increase in fluorescence intensity attributable to ThT as well as the lag time of the increase, the fibrillation tendency of a peptide can be determined, thereby providing a measure of the physical stability of the peptide.
In the present study, test compounds were diluted in buffer to a final concentration of 3 mg/ml.
The fibrillation tendencies of the peptides were determined under stress using a Fluoroskan Ascent FL or Fluoroskan Ascent fluorometer. […] Plates were sealed with Scotch Tape (Quiagen). Samples were stressed by continuous cycles of 10 s shaking at 960 rpm and 50 s rest period at 37° C. Fibril development was monitored by measuring fluorescence intensity every 20 minutes. For each sample, eight replicates were tested.

rat CRF2R α receptor = test: cAMP agonism at rat CRF2R α receptor in A7R5 rat aortic smooth muscle cells (Example 8); assay type: cell-based; conditions: cAMP HTRF, A7R5 rat aortic smooth muscle cell line, 0% HSA
Outline: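 Thawed cryopreserved A7R5 cells in HBSS/20 mM HEPES (0 or 0.1% HSA) with 2 mM IBMX, 2000 cells/well, were exposed to compound for 30 min at room temperature. cAMP was read by HTRF (665/620 nm ratio) after 1 h with lysis reagents. Activity was normalised to 1000 nM urocortin 2 as 100%, and EC50 was taken as the concentration giving 50% of maximal activation.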

[3] = 0% HSA, read-out: EC50 [nM], 0% HSA
[4] = Buffer A: 100 mM acetate buffer, pH 4.5
[5] = 0.1% HSA, read-out: EC50 [nM], 0.1% HSA
[6] = Buffer B: 100 mM acetate buffer, pH 4.5, 2.7 mg/ml m-cresol

EC50 (human CRF2α receptor; [3]) [nM]	EC50 (CRF1R receptor) [nM]	Emax (CRF1R receptor) [%]	solubility at 1 h [1] [µg/mL]	Increase in FI (fluorescence intensity) [2, 4]	Lag time [2, 4] [h]	EC50 (human CRF2α receptor; [5]) [nM]	EC50 (rat CRF2R α receptor) [nM]	Increase in FI (fluorescence intensity) [2, 6]	Lag time [2, 6] [h]	Compound
0.04	> 1000	17.4	> 9600	Yes	18					CCCCCCCCCCCCCCCC(=O)N[C@@H](CCC(=O)NCCCC[C@H](NC(=O)[C@H](CC(C)C)NC(=O)CNC(=O)[C@@H](NC(=O)[C@@H]1CCCN1C(=O)[C@@H](NC(=O)[C@H](CC(=O)O)NC(=O)[C@H](CC(C)C)NC(=O)[C@H](CO)NC(=O)[C@H](CC(C)C)NC(=O)[C@@H](NC(=O)[C@@H](N)[C@@H](C)CC)C(C)C)C(C)C)[C@@H](C)CC)C(=O)N[C@@H](CCC(N)=O)C(=O)N[C@@H](CCCCN)C(=O)N[C@@H](CC(C)C)C(=O)N[C@@H](CC(C)C)C(=O)N[C@@H](CCCCN)C(=O)N[C@@H](CCC(N)=O)C(=O)N[C@@H](CCC(=O)O)C(=O)N[C@@H](CCCCN)C(=O)N[C@@H](CCC(N)=O)C(=O)N[C@@H](CCC(=O)O)C(=O)N[C@@H](CCCCN)C(=O)N[C@@H](CCC(=O)O)C(=O)N[C@@H](CCCCN)C(=O)N[C@@H](CCC(N)=O)C(=O)N[C@@H](CCC(N)=O)C(=O)N[C@@H](C)C(=O)N[C@@H](CCC(=O)O)C(=O)N[C@H](C(=O)N[C@@H](CC(N)=O)C(=O)N[C@@H](C)C(=O)N[C@@H](CCCCN)C(=O)N[C@H](C(=O)N[C@@H](CC(C)C)C(=O)N[C@@H](C)C(=O)N[C@@H](CCC(N)=O)C(=O)N[C@H](C(N)=O)C(C)C)[C@@H](C)CC)[C@@H](C)O)C(=O)O [compound 4] (H-IVLSLDVPIGLK([γGlu-Palmitoyl])QKLLKQEKQEKEKQQAETNAKILAQV-NH2; N-terminus assumed)
0.07	> 1000	7.51				2.99	1.83	No	>45	CC[C@H](C)[C@H](N)C(=O)N[C@H](C(=O)N[C@@H](CC(C)C)C(=O)N[C@@H](CO)C(=O)N[C@@H](CC(C)C)C(=O)N[C@@H](CC(=O)O)C(=O)N[C@@H](C(=O)N1CCC[C@H]1C(=O)N[C@H](C(=O)NCC(=O)N[C@@H](CC(C)C)C(=O)N[C@@H](CCCCNC(=O)COCCOCCNC(=O)COCCOCCNC(=O)CC[C@H](NC(=O)CCCCCCCCCCCCCCCCC(=O)O)C(=O)O)C(=O)N[C@@H](CCC(N)=O)C(=O)N[C@H](C(=O)N[C@@H](CC(C)C)C(=O)N[C@@H](CC(C)C)C(=O)N[C@@H](CCCCN)C(=O)N[C@@H](CCC(N)=O)C(=O)N[C@@H](CCC(=O)O)C(=O)N[C@@H](CCCNC(=N)N)C(=O)N[C@@H](CCC(N)=O)C(=O)N[C@@H](CCCCN)C(=O)N[C@@H](CCCCN)C(=O)NC(C)(C)C(=O)N[C@@H](CCCNC(=N)N)C(=O)N[C@@H](CCC(=O)O)C(=O)N[C@@H](CCC(N)=O)C(=O)N[C@@H](C)C(=O)N[C@@H](CCC(=O)O)C(=O)N[C@H](C(=O)N[C@@H](CC(N)=O)C(=O)N[C@@H](CCCCN)C(=O)N[C@@H](CCCNC(=N)N)C(=O)N[C@H](C(=O)N[C@@H](CC(C)C)C(=O)N[C@@H](CCC(=O)O)C(=O)N[C@@H](CCCNC(=N)N)C(=O)N[C@H](C(N)=O)C(C)C)[C@@H](C)CC)[C@@H](C)O)[C@@H](C)CC)[C@@H](C)CC)C(C)C)C(C)C [compound 83] (H-IVLSLD[dV]PIGLK([AEEA-AEEA-γGlu-C18 diacid])QILLKQERQKK[Aib]REQAETNKRILERV-NH2; N-terminus assumed)
0.11						2.44	0.39	No	>45	CC[C@H](C)[C@H](N)C(=O)N[C@H](C(=O)N[C@@H](CC(C)C)C(=O)N[C@@H](CO)C(=O)N[C@@H](CC(C)C)C(=O)N[C@@H](CC(=O)O)C(=O)N[C@@H](C(=O)N1CCC[C@H]1C(=O)N[C@H](C(=O)N[C@@H](CCCCN)C(=O)N[C@@H](CC(C)C)C(=O)N[C@@H](CCCCNC(=O)COCCOCCNC(=O)COCCOCCNC(=O)CC[C@H](NC(=O)CCCCCCCCCCCCCCCCC(=O)O)C(=O)O)C(=O)N[C@@H](CCC(N)=O)C(=O)N[C@H](C(=O)N[C@@H](CC(C)C)C(=O)N[C@@H](CC(C)C)C(=O)N[C@@H](CCC(=O)O)C(=O)N[C@@H](CCC(N)=O)C(=O)N[C@@H](CCC(=O)O)C(=O)N[C@@H](CCCNC(=N)N)C(=O)N[C@@H](CCC(N)=O)C(=O)N[C@@H](CCCCN)C(=O)NC(C)(C)C(=O)N[C@@H](CCC(N)=O)C(=O)N[C@@H](CCCNC(=N)N)C(=O)N[C@@H](CCC(N)=O)C(=O)N[C@@H](CCC(N)=O)C(=O)N[C@@H](C)C(=O)N[C@@H](CCC(=O)O)C(=O)N[C@@H](CCCCN)C(=O)N[C@@H](CC(N)=O)C(=O)N[C@@H](CCCCN)C(=O)N[C@@H](CCC(N)=O)C(=O)N[C@H](C(=O)N[C@@H](CC(C)C)C(=O)N[C@@H](C)C(=O)N[C@@H](CCC(N)=O)C(=O)N[C@H](C(N)=O)C(C)C)[C@@H](C)CC)[C@@H](C)CC)[C@@H](C)CC)C(C)C)C(C)C [compound 131] (H-IVLSLD[dV]PIKLK([AEEA-AEEA-γGlu-C18 diacid])QILLEQERQK[Aib]QRQQAEKNKQILAQV-NH2)
0.38	> 1000	36.9				8.76	0.79	No	>45	CC[C@H](C)[C@H](N)C(=O)N[C@H](C(=O)N[C@@H](CC(C)C)C(=O)N[C@@H](CO)C(=O)N[C@@H](CC(C)C)C(=O)N[C@@H](CC(=O)O)C(=O)N[C@@H](C(=O)N1CCC[C@H]1C(=O)N[C@H](C(=O)N[C@@H](CCCCN)C(=O)N[C@@H](CC(C)C)C(=O)N[C@@H](CCCCNC(=O)COCCOCCNC(=O)COCCOCCNC(=O)CC[C@H](NC(=O)CCCCCCCCCCCCCCCCC(=O)O)C(=O)O)C(=O)N[C@@H](CCC(N)=O)C(=O)N[C@H](C(=O)N[C@@H](CC(C)C)C(=O)N[C@@H](CC(C)C)C(=O)N[C@@H](CCC(=O)O)C(=O)N[C@@H](CCC(N)=O)C(=O)N[C@@H](CCC(=O)O)C(=O)N[C@@H](CCCNC(=N)N)C(=O)N[C@@H](CCC(N)=O)C(=O)N[C@@H](CCCCN)C(=O)NC(C)(C)C(=O)N[C@@H](CCC(N)=O)C(=O)N[C@@H](CCCNC(=N)N)C(=O)N[C@@H](CCC(=O)O)C(=O)N[C@@H](CCC(N)=O)C(=O)N[C@@H](C)C(=O)N[C@@H](CCC(=O)O)C(=O)N[C@@H](CCCCN)C(=O)N[C@@H](CC(N)=O)C(=O)N[C@@H](CCCCN)C(=O)N[C@@H](CCC(N)=O)C(=O)N[C@H](C(=O)N[C@@H](CC(C)C)C(=O)N[C@@H](CCC(=O)O)C(=O)N[C@@H](CCCNC(=N)N)C(=O)N[C@H](C(N)=O)C(C)C)[C@@H](C)CC)[C@@H](C)CC)[C@@H](C)CC)C(C)C)C(C)C [compound 132] (H-IVLSLD[dV]PIKLK([AEEA-AEEA-γGlu-C18 diacid])QILLEQERQK[Aib]QREQAEKNKQILERV-NH2)
